Data reported in article PMC6315541, “Nile Tilapia Derived Antimicrobial Peptide TP4 Exerts Antineoplastic Activity Through Microtubule Disruption” (Marine Drugs, 2018).

Test system: α-Tubulin
Assay: Co-immunoprecipitation (TP4 antibody pull-down), LC-MS/MS and immunoblot
Format: binding, Homo sapiens
Conditions: lysates of A549 cells treated with 10 μg mL^−1 TP4 for 3 h
Procedure: To characterize the intracellular targets of TP4, cell lysates from A549 cells treated with 10 μg mL^−1 TP4 for 3 h were pulled down with the TP4 antibody, see Figure 1A. The dominant band was excised from the gel and analyzed by LC-MS/MS. Based on a MASCOT search for peptides found by MS, the potential binding target for TP4 was identified as α-Tubulin, see Figure 1C and Supplementary Dataset S1. […] Because tubulin is the major component of microtubules, we hypothesized that the cytotoxic effects of intracellular TP4 may be related to microtubule dynamics.
Figure 1 TP4 interacts with α-Tubulin. (A) Procedure showing the pull down of TP4 interaction partners with TP4 antibody. […] (C) Protein database searching of peptides detected by MS identified α-Tubulin as a TP4 binding partner. α-Tubulin sequence is shown. […]
Cell lysates were prepared in immunoprecipitation (IP) detergent (50 mM Tris-HCl, pH 8.0, 150 mM NaCl, 1% Igepal CA-630: Sigma-Aldrich, St. Louis, MO, USA) with protease cocktail (Roche Applied Science, Mannheim, Germany). […] The mass spectrometry data were analyzed by Mascot engine (v.2.6.0) (Matrix Science Inc., Boston, MA, USA) to identify candidate interaction targets. […] Signals were detected by enhanced chemiluminescence (Immobilon Western Chemiluminescent HRP substrate, Merck Millipore, Billerica, MA, USA) on an imaging system (UVP, BioSpectrumTM 500, Upland, CA, USA). […]

## FIHHIIGGLFSAGKAIHRLIRRRRR [TP4, synthesized Nile tilapia-derived antimicrobial peptide, Tilapia piscidin 4]
  interaction with α-Tubulin (IP with TP4 antibody, probed with α-Tubulin antibody): confirming the interaction between TP4 and α-Tubulin
